Test results reported in publication PMC9267968, “Continued Structural Exploration of Sulfocoumarin as Selective Inhibitor of Tumor-Associated Human Carbonic Anhydrases IX and XII” (Molecules, 2022).

Legend:
hCA I = biological target: T1, hCA I (Homo sapiens, UniProt P00915); test: stopped-flow CO2 hydrase assay, hCA I inhibition; assay type: biochemical; details: 6 h incubation of enzyme and inhibitor; mean from 3 different assays, errors 5-10%; read-out: KI (nM) CA I
T1 construct: made in house
Description: (§1) For this reason, we herein report a 6 h incubation time instead.
(§2) An Applied Photophysics stopped-flow instrument was used for assaying the CA catalyzed CO2 hydration activity. […] The uncatalyzed rates were determined in the same manner and subtracted from the total observed rates. Stock solutions of inhibitor (0.1 mM) were prepared in distilled–deionized water and dilutions up to 0.01 nM were done thereafter with the assay buffer. Inhibitor and enzyme solutions were preincubated together for 6h at room temperature prior to assay, in order to allow for the formation of the E-I complex. The inhibition constants were obtained by non-linear least-squares methods using PRISM 3 and the Cheng–Prusoff equation and represent the mean from at least three different determinations. […] All CA isoforms were recombinant ones obtained in-house.

hCA II = biological target: T2, hCA II (Homo sapiens, UniProt P00918); test: stopped-flow CO2 hydrase assay, hCA II inhibition; assay type: biochemical; details: 6 h incubation of enzyme and inhibitor; mean from 3 different assays, errors 5-10%; read-out: KI (nM) CA II
T2 construct: made in house
Description: as §1, §2

hCA IX = biological target: T3, hCA IX (Homo sapiens, UniProt Q16790); test: stopped-flow CO2 hydrase assay, hCA IX inhibition; assay type: biochemical; details: 6 h incubation of enzyme and inhibitor; mean from 3 different assays, errors 5-10%; read-out: KI (nM) CA IX
T3 construct: made in house
Description: as §1, §2

hCA XII = biological target: T4, hCA XII (Homo sapiens, UniProt O43570); test: biochemical
T4 construct: made in house
Description: as §1, §2

T4 sequence (O43570 25-354): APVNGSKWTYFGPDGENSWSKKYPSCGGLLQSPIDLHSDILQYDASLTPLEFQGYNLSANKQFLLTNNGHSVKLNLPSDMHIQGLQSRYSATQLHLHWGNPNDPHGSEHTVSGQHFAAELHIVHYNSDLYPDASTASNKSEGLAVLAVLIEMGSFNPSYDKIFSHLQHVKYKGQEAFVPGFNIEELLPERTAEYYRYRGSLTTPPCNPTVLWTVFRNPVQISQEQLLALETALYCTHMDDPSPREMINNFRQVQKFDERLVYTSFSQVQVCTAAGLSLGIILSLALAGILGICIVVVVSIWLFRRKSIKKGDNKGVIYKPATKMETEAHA
T1 sequence (P00915 whole entry): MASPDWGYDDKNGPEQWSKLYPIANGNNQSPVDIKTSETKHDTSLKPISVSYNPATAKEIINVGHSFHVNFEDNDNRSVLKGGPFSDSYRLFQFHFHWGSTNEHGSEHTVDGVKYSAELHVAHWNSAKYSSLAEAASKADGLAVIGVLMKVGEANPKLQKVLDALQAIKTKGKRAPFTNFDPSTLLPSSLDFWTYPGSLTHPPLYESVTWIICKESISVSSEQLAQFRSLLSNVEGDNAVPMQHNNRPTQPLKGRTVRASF

| Structure (SMILES) | Ki (hCA I) [nM] | Ki (hCA II) [nM] | Ki (hCA IX) [nM] | Ki (hCA XII) [µM] | melting point [°C] |
| --- | --- | --- | --- | --- | --- |
| O=C(Nc1ccccc1)C1=Cc2ccccc2OS1(=O)=O [Compound 38, N-phenylbenzo[e][1,2]oxathiine-3-carboxamide 2,2-dioxide] | > 100000 | > 100000 | 3290 | 2.3 | 192 to 195 |
| O=C(Nc1ccc(Br)cc1)C1=Cc2ccccc2OS1(=O)=O [Compound 39, N-(4-bromophenyl)benzo[e][1,2]oxathiine-3-carboxamide 2,2-dioxide] | > 100000 | > 100000 | 34300 | 59 | 249 to 252 |
| O=C(Nc1cccc(Br)c1)C1=Cc2ccccc2OS1(=O)=O [Compound 40, N-(3-bromophenyl)benzo[e][1,2]oxathiine-3-carboxamide 2,2-dioxide] | > 100000 | > 100000 | 40800 | 78.3 | 228 to 229 |
| COc1ccc(NC(=O)C2=Cc3ccccc3OS2(=O)=O)cc1 [Compound 41, N-(4-methoxyphenyl)benzo[e][1,2]oxathiine-3-carboxamide 2,2-dioxide] | > 100000 | > 100000 | 8230 | 8.55 | 231 to 233 |
| COc1cccc(NC(=O)C2=Cc3ccccc3OS2(=O)=O)c1 [Compound 42, N-(3-methoxyphenyl)benzo[e][1,2]oxathiine-3-carboxamide 2,2-dioxide] | > 100000 | > 100000 | 5420 | 3.38 | 219 to 221 |
| COc1ccc2c(c1)OS(=O)(=O)C(C(=O)Nc1ccccc1)=C2 [Compound 43, 7-methoxy-N-phenylbenzo[e][1,2]oxathiine-3-carboxamide 2,2-dioxide] | > 100000 | > 100000 | 2430 | 1.59 | 241 to 244 |
| COc1ccc2c(c1)OS(=O)(=O)C(C(=O)Nc1ccc(Br)cc1)=C2 [Compound 44, N-(4-bromophenyl)-7methoxybenzo[e][1,2]oxathiine-3-carboxamide 2,2-dioxide] | > 100000 | > 100000 | 51500 | 42.5 | 272 to 275 |
| COc1ccc2c(c1)OS(=O)(=O)C(C(=O)Nc1cccc(Br)c1)=C2 [Compound 45, N-(3-bromophenyl)-7-methoxybenzo[e][1,2]oxathiine-3-carboxamide 2,2-dioxide] | > 100000 | > 100000 | 64400 | 76.5 | 218 to 220 |
| COc1ccc(NC(=O)C2=Cc3ccc(OC)cc3OS2(=O)=O)cc1 [Compound 46, N-(4-methoxyphenyl)-7-methoxybenzo[e][1,2]oxathiine-3-carboxamide 2,2-dioxide] | > 100000 | > 100000 | 4370 | 6.55 | 238 to 240 |
| COc1cccc(NC(=O)C2=Cc3ccc(OC)cc3OS2(=O)=O)c1 [Compound 47, N-(3-methoxyphenyl)-7-methoxybenzo[e][1,2]oxathiine-3-carboxamide 2,2-dioxide] | > 100000 | > 100000 | 6560 | 2.47 | 222 to 225 |
